Calls of active or inactive are those of the source. No rule for the calls is given here.
Tested on: CCRIS mutagenicity, Ames/micronucleus/aberration tests
Test: CCRIS mutagenicity studies
Conditions: Test System: AMES SALMONELLA TYPHIMURIUM
[1] = Strain/Indicator: TA98, Metabolic Activation: NONE, Method: PREINCUBATION
[2] = Strain/Indicator: TA98, Metabolic Activation: NONE, Method: STANDARD PLATE
[3] = Strain/Indicator: TA98, Metabolic Activation: RAT, LIVER, S-9, AROCLOR 1254, Method: PREINCUBATION
[4] = Strain/Indicator: TA100, Metabolic Activation: NONE, Method: PREINCUBATION
[5] = Strain/Indicator: TA100, Metabolic Activation: NONE, Method: STANDARD PLATE
[6] = Strain/Indicator: TA100, Metabolic Activation: RAT, LIVER, S-9, AROCLOR 1254, Method: PREINCUBATION
[7] = Strain/Indicator: TA102, Metabolic Activation: NONE, Method: STANDARD PLATE
[8] = Strain/Indicator: TA1535, Metabolic Activation: NONE, Method: PREINCUBATION

For `[Cl][Pd-2]([Cl])([Cl])[Cl]`, the mutagenic call (Strain/Indicator: TA97A, Metabolic Activation: NONE, Method: STANDARD PLATE) was “inactive; negative”, the mutagenic call (Strain/Indicator: TA97A, Metabolic Activation: RAT, LIVER, S-9, PHENOBARBITAL AND 5,6-BENZOFLAVONE, Method: STANDARD PLATE) was “inactive; negative” and the mutagenic call (Strain/Indicator: TA97A, Metabolic Activation: RAT, LIVER, S-9, PHENOBARBITAL AND BETA-NAPHTHOFLAVONE, Method: STANDARD PLATE) was “inactive; negative”. For the same molecule, the mutagenic call [1] was “inactive; negative”, the mutagenic call [2] was “inactive; negative” and the mutagenic call [3] was “inactive; negative”. For the same molecule, the mutagenic call (Strain/Indicator: TA98, Metabolic Activation: RAT, LIVER, S-9, PHENOBARBITAL AND 5,6-BENZOFLAVONE, Method: STANDARD PLATE) was “inactive; negative”, the mutagenic call (Strain/Indicator: TA98, Metabolic Activation: RAT, LIVER, S-9, PHENOBARBITAL AND BETA-NAPHTHOFLAVONE, Method: STANDARD PLATE) was “inactive; negative” and the mutagenic call [4] was “inactive; negative”. The mutagenic call [5] was “inactive; negative”, the mutagenic call [6] was “inactive; negative” and the mutagenic call (Strain/Indicator: TA100, Metabolic Activation: RAT, LIVER, S-9, PHENOBARBITAL AND 5,6-BENZOFLAVONE, Method: STANDARD PLATE) was “inactive; negative”. The mutagenic call (Strain/Indicator: TA100, Metabolic Activation: RAT, LIVER, S-9, PHENOBARBITAL AND BETA-NAPHTHOFLAVONE, Method: STANDARD PLATE) was “inactive; negative”, the mutagenic call [7] was “inactive; negative” and the mutagenic call (Strain/Indicator: TA102, Metabolic Activation: RAT, LIVER, S-9, PHENOBARBITAL AND 5,6-BENZOFLAVONE, Method: STANDARD PLATE) was “inactive; negative”. The mutagenic call (Strain/Indicator: TA102, Metabolic Activation: RAT, LIVER, S-9, PHENOBARBITAL AND BETA-NAPHTHOFLAVONE, Method: STANDARD PLATE) was “inactive; negative”.
`CC(Br)C(Br)COP(=O)(OCC(Br)C(C)Br)OCC(Br)C(C)Br` (stereo not drawn) was tested, and the mutagenic call (Strain/Indicator: TA100, Metabolic Activation: RAT, LIVER, MICROSOMES, PHENOBARBITAL, Method: PREINCUBATION) was “active; positive” and the mutagenic call (Strain/Indicator: TA100, Metabolic Activation: RAT, LIVER, MICROSOMES, Method: PREINCUBATION) was “active; positive”.
`C[C@H](CCC(=O)O)[C@H]1CC[C@H]2[C@@H]3C(=O)C[C@@H]4C[C@H](O)CC[C@]4(C)[C@H]3CC[C@]12C` was tested, and the mutagenic call (Strain/Indicator: TA98, Metabolic Activation: NONE, Method: FLUCTUATION TEST) was “inactive; negative”, the mutagenic call [1] was “inactive; negative” and the mutagenic call (Strain/Indicator: TA98, Metabolic Activation: RAT, LIVER, S-9, PCB, Method: PREINCUBATION) was “inactive; negative”. The mutagenic call (Strain/Indicator: TA100, Metabolic Activation: NONE, Method: FLUCTUATION TEST) was “inactive; negative”.
With `COC(=O)c1ccco1` the mutagenic call [2] was “inactive; negative” and the mutagenic call [5] was “inactive; negative”.
In the case of `CN[C@@H]1[C@H](O[C@H]2[C@H](O[C@H]3[C@H](O)[C@@H](O)[C@H](N=C(N)N)[C@@H](O)[C@@H]3N=C(N)N)O[C@@H](C)[C@]2(O)C=O)O[C@@H](CO)[C@H](O)[C@H]1O`, the mutagenic call (Strain/Indicator: TA98, Metabolic Activation: HAMSTER, LIVER, S-9, AROCLOR 1254, Method: PREINCUBATION) is reported as “inactive; negative”, the mutagenic call [1] is reported as “inactive; negative” and the mutagenic call [3] is reported as “inactive; negative”. For the same molecule, the mutagenic call (Strain/Indicator: TA100, Metabolic Activation: HAMSTER, LIVER, S-9, AROCLOR 1254, Method: PREINCUBATION) was “inactive; negative”, the mutagenic call [4] was “inactive; negative” and the mutagenic call [6] was “inactive; negative”. The mutagenic call [7] was “active; positive”, the mutagenic call (Strain/Indicator: TA102, Metabolic Activation: RAT, LIVER, S-9, AROCLOR 1254, Method: STANDARD PLATE) was “active; positive” and the mutagenic call (Strain/Indicator: TA1535, Metabolic Activation: HAMSTER, LIVER, S-9, AROCLOR 1254, Method: PREINCUBATION) was “inactive; negative”. For the same molecule, the mutagenic call [8] was “inactive; negative”, the mutagenic call (Strain/Indicator: TA1535, Metabolic Activation: RAT, LIVER, S-9, AROCLOR 1254, Method: PREINCUBATION) was “inactive; negative” and the mutagenic call (Strain/Indicator: TA1537, Metabolic Activation: HAMSTER, LIVER, S-9, AROCLOR 1254, Method: PREINCUBATION) was “inactive; negative”. For the same molecule, the mutagenic call (Strain/Indicator: TA1537, Metabolic Activation: NONE, Method: PREINCUBATION) was “inactive; negative”, the mutagenic call (Strain/Indicator: TA1537, Metabolic Activation: RAT, LIVER, S-9, AROCLOR 1254, Method: PREINCUBATION) was “inactive; negative” and the mutagenic call (Strain/Indicator: TA2638A, Metabolic Activation: NONE, Method: STANDARD PLATE) was “inactive; negative”.
For `Cc1cc2c(nc1N)[nH]c1ccccc12`, the mutagenic call [3] was “active; positive”, the mutagenic call [6] was “active; positive” and the mutagenic call (Strain/Indicator: YG1019, Metabolic Activation: RAT LIVER S-9, AROCLOR, Method: PREINCUBATION) was “active; positive”.
For `CNC(=O)NOC(=O)N(C)C(=O)NC`, the mutagenic call [2] was “inactive; negative”, the mutagenic call (Strain/Indicator: TA98, Metabolic Activation: RAT, LIVER, S-9, Method: STANDARD PLATE) was “inactive; negative” and the mutagenic call [5] was “inactive; negative”.
In the case of `C=CC(=O)NCNC(=O)C=C`, the mutagenic call (Strain/Indicator: TA97, Metabolic Activation: HAMSTER, LIVER, S-9, AROCLOR 1254 (10%), Method: PREINCUBATION) is reported as “inactive; negative”, the mutagenic call (Strain/Indicator: TA97, Metabolic Activation: NONE, Method: PREINCUBATION) is reported as “inactive; negative” and the mutagenic call (Strain/Indicator: TA97, Metabolic Activation: RAT, LIVER, S-9, AROCLOR 1254 (10%), Method: PREINCUBATION) is reported as “inactive; negative”. The mutagenic call (Strain/Indicator: TA98, Metabolic Activation: HAMSTER, LIVER, S-9, AROCLOR 1254 (10%), Method: PREINCUBATION) was “inactive; negative”, the mutagenic call [1] was “inactive; negative” and the mutagenic call (Strain/Indicator: TA98, Metabolic Activation: RAT, LIVER, S-9, AROCLOR 1254 (10%), Method: PREINCUBATION) was “inactive; negative”. For the same molecule, the mutagenic call (Strain/Indicator: TA100, Metabolic Activation: HAMSTER, LIVER, S-9, AROCLOR 1254 (5, 10 OR 30%), Method: PREINCUBATION) was “inactive; negative”, the mutagenic call [4] was “inactive; negative” and the mutagenic call (Strain/Indicator: TA100, Metabolic Activation: RAT, LIVER, S-9, AROCLOR 1254 (10%), Method: PREINCUBATION) was “inactive; negative”. The mutagenic call (Strain/Indicator: TA1535, Metabolic Activation: HAMSTER, LIVER, S-9, AROCLOR 1254 (10%), Method: PREINCUBATION) was “active; positive”, the mutagenic call [8] was “inactive; negative” and the mutagenic call (Strain/Indicator: TA1535, Metabolic Activation: RAT, LIVER, S-9, AROCLOR 1254 (10%), Method: PREINCUBATION) was “inactive; negative”.
`O[C@H]1C=Cc2c(ccc3cc4c5c(ccc4cc23)[C@H](O)[C@@H](O)C=C5)[C@@H]1O` was tested, and the mutagenic call (Strain/Indicator: TA100, Metabolic Activation: RAT, LIVER, S-9, AROCLOR 1254, Method: STANDARD PLATE) was “inactive; negative”.

Reference: PubChem BioAssay AID1259407 (Chemical Carcinogenesis Research Information System (CCRIS), 2018)
